Values after ≈ are worked out from the molar mass of the structure shown. Residues, ends and D or L forms follow the SMILES beside them. *: point of attachment. Cbz = O=C(OCc1ccccc1)*
Legend:
Rattus norvegicus = assay: Antiinflammatory activity in rat model of carrageenan-induced paw edema assessed as reduction in paw thickness at 10 mg/kg,ip and measured after 4 hrs; type: functional; parameters: scale not given: the % may be the effect or the level left
[1] = Antioxidant activity assessed as […] radical scavenging activity at 50 uM; type: functional
Mus musculus [2] = assay: Antiinflammatory activity in ICR mouse model of TPA-induced ear edema assessed as inhibition of ear inflammation at 1 mg,TOP for 30 mins followed by TPA addition and measured after 6 hrs; type: functional; details: time 390 min, 6.5 h
RAW264.7 [3] = assay: Antiinflammatory activity in mouse RAW264.7 cells assessed as inhibition of LPS-induced NO production for 24 hrs by Griess assay; type: functional, cell-based; details: RAW264.7, 24 h
J774.1 = assay: Antiinflammatory activity in mouse J774.1 cells assessed as inhibition of LPS-induced NO production incubated for 48 hrs by Griess reagent based analysis; type: functional, cell-based
RAW264.7 [4] = assay: Antiinflammatory activity in mouse RAW264.7 cells assessed as inhibition of LPS-induced TNFalpha level preincubated for 1 hrs followed by LPS stimulation and measured after 24 hrs by ELISA; type: functional, cell-based
RAW264.7 [5] = assay: Antiinflammatory activity in mouse RAW264.7 cells assessed as inhibition of LPS-induced NO production preincubated for 1 hrs followed by LPS stimulation and measured after 24 hrs by Griess method; type: functional, cell-based
[6] = Antiinflammatory activity in mouse N11 cells assessed as inhibition of LPS-induced TNFalpha level preincubated for 1 hrs followed by LPS stimulation and measured after 24 hrs by ELISA; type: functional, cell-based
[7] = Antiinflammatory activity in mouse N11 cells assessed as inhibition of LPS-induced NO production preincubated for 1 hrs followed by LPS stimulation and measured after 24 hrs by Griess method; type: functional, cell-based
RAW264.7 [8] = assay: Antiinflammatory activity in mouse RAW264.7 cells assessed as inhibition of LPS-induced NO production preincubated for 1 hrs followed by LPS stimulation and measured after 24 hrs by Griess reagent based spectrophotometrical method; type: functional, cell-based
[9] = Antioxidant activity assessed as ABTS radical scavenging activity measured after 6 mins; type: functional
RAW264.7 [10] = assay: Antiinflammatory activity in mouse RAW264.7 cells assessed as inhibition of IFN-gamma and LPS-induced NO production incubated for 24 hrs by Griess assay; type: functional, cell-based; details: RAW264.7, 24 h
RAW264.7 [11] = assay: Antiinflammatory activity against mouse RAW264.7 cells assessed as inhibition of IFN-gamma and LPS-induced COX2 production preincubated for 2 hrs followed by IFN-gamma and LPS stimulation and measured after 16 hrs by spectrophotometric analysis; type: functional, cell-based
RAW264.7 [12] = assay: Antiinflammatory activity in mouse RAW264.7 cells assessed as inhibition of LPS-induced NO production preincubated for 0.5 hrs followed by LPS stimulation and measured after 24 hrs by Griess reagent based analysis; type: functional, cell-based
RAW264.7 [13] = assay: Antiinflammatory activity in mouse RAW264.7 cells assessed as inhibition of LPS-induced NO production incubated for 18 hrs by Griess method; type: functional, cell-based; details: RAW264.7, 18 h
Mus musculus [14] = assay: Antiinflammatory activity in TPA-induced ear edema ICR mouse model assessed as inhibition of ear inflammation at 1 ug, TOP for 30 mins followed by TPA addition and measured after 6 hrs; type: functional; details: dose 1 µg, time 390 min, 6.5 h
Zingiber officinale = assay: Inhibition of prostaglandin biosynthesis in ginger; type: functional, organism-based
[15] = Antioxidant activity assessed as DPPH radical scavenging activity incubated for 30 mins by spectrophotometric analysis; type: functional

SMILES: COc1c2cc(c(O)c1OC)CCCC[C@H](O)CCc1ccc(O)c-2c1
- Activity (Rattus norvegicus): 51.5%
- Activity [1]: 41%

SMILES: O=C1CCc2ccc(cc2)Oc2cc(ccc2O)CC[C@@H](O[C@@H]2O[C@H](CO)[C@@H](O)[C@H](O)[C@H]2O)C1
- ID50 (Mus musculus [2]): 0.49 mg

SMILES: COc1cc(C(O)C(O)C(O)CC(O)C(O)Cc2ccc(O)cc2)ccc1O (stereo not drawn)
- IC50 (RAW264.7 [3]): 46.7 µM

SMILES: COc1cc([C@@H]2O[C@H]([C@@H](O)Cc3ccc(O)cc3)C[C@@H](O)[C@@H]2O)ccc1O
- IC50 (RAW264.7 [3]): > 100 µM

SMILES: Oc1ccc(CC[C@@H]2C[C@@H](O)C[C@H](c3ccc(O)c(O)c3)O2)cc1
- IC50 (RAW264.7 [3]): 27.9 µM

SMILES: COc1cc(O)c([C@@H](/C=C/C[C@@H](O)CCc2ccc(O)cc2)c2ccc(O)cc2)c2oc(-c3ccc(O)cc3)cc(=O)c12 (stereo in doubt; 113)
- IC50 (J774.1; j774.1): 83 µM

SMILES: COc1cc(O)c([C@@H](/C=C/C[C@@H](O)CCc2ccc(O)cc2)c2ccc(O)cc2)c(O)c1C(=O)[C@@H]1[C@H](/C=C/c2ccc(O)cc2)C[C@H](CCc2ccc(O)cc2)O[C@H]1c1ccc(O)cc1
- IC50 (J774.1; Mus musculus, J774.1, 48 h): 39 µM

SMILES: COc1c2cc(c(O[C@@H]3O[C@H](CO)[C@@H](O)[C@H](O)[C@H]3O)c1O)CCCCC(=O)CCc1ccc(OC(C)=O)c-2c1
- Activity (Rattus norvegicus): 46.3%
- Activity [1]: 41%

SMILES: COc1ccc(C/C=C/CCCCc2cccc(O)c2)cc1
- IC50 (RAW264.7 [4]): 9.9 µM
- IC50 (RAW264.7 [5]): 47 µM
- IC50 [6]: 29.6 µM
- IC50 [7]: 44.2 µM

SMILES: COc1c2cc(c(O[C@@H]3O[C@H](CO)[C@@H](O)[C@H](O)[C@H]3O)c1OC)CCCCC(=O)CCc1ccc(O)c-2c1
- Activity (Rattus norvegicus): 46.9%
- Activity [1]: 41%

SMILES: COc1c2cc(c(O)c1OC)CCCC[C@@H](O)CCc1ccc(O)c-2c1
- IC50 (RAW264.7 [8]): 7.5 µM
- IC50 [9]: 22.3 µM

SMILES: OC[C@@]1(O)CO[C@@H](OC[C@H]2O[C@@H](O[C@H](CCCCc3ccc(O)c(O)c3)CCc3ccc(O)c(O)c3)[C@H](O)[C@@H](O)[C@@H]2O)[C@@H]1O
- IC50 (RAW264.7 [10]): 49.4 µg/mL (≈ 78.8 µM)
- IC50 (RAW264.7 [11]): 34.2 µg/mL (≈ 54.6 µM)

SMILES: O=C(CCc1ccc(O)c(O)c1)C[C@H](CCc1ccc(O)c(O)c1)O[C@H]1OC[C@H](O)[C@@H](O)[C@@H]1OC(=O)/C=C/c1ccc(O)cc1
- IC50 (RAW264.7 [12]): 22 µM

SMILES: COc1ccc(C/C=C/CCCCc2ccc(O)cc2)cc1
- IC50 (RAW264.7 [4]): 29.6 µM
- IC50 (RAW264.7 [5]): 47 µM
- IC50 [6]: 29.6 µM
- IC50 [7]: 63.2 µM

SMILES: Oc1ccc2cc1Oc1ccc(cc1)CC[C@H](O)CCCC2 [ACEROGENIN A]
- ID50 (Mus musculus [2]): 0.32 mg

SMILES: Oc1ccc(CC[C@@H](O)CCCCc2ccc(O)c(O)c2)cc1
- IC50 (RAW264.7 [13]): 13.8 µM

SMILES: OC[C@H]1O[C@@H](O[C@@H]2C[C@@H](CCc3ccc(O)cc3)O[C@@H](c3ccc(O)c(O)c3)C2)[C@H](O)[C@@H](O)[C@@H]1O
- IC50 (RAW264.7 [3]): 79.9 µM

SMILES: Oc1ccc(CC[C@H](O)C[C@H](O)CCc2ccc(O)c(O)c2)cc1
- IC50 (RAW264.7 [3]): 27 µM

SMILES: COc1cc(O)c([C@@H]2C[C@H](CCc3ccc(O)cc3)O[C@@H](c3ccc(O)cc3)C2)c(O)c1C(=O)/C=C/c1ccc(O)cc1 [EPICALYXIN F]
- IC50 (J774.1; Mus musculus, J774.1, 48 h): 51 µM

SMILES: Oc1ccc(CC[C@H]2C[C@@H](O)C[C@@H](c3ccc(O)c(O)c3)O2)cc1
- IC50 (RAW264.7 [3]): 17.3 µM

SMILES: CO[C@@H](CCc1ccccc1)CC(=O)CCc1ccccc1
- ID50 (Mus musculus [14]): 2.7 µmol

SMILES: CCCOC(=O)c1cc(O)c(O)c(O)c1
- Activity [1]: 97%

SMILES: N=C(NCCC[C@H](N)C(=O)O)N[N+](=O)[O-] [NITROARGININE]
- IC50 (RAW264.7 [8]): 39.5 µM

SMILES: O=c1cc(-c2ccc(O)cc2)oc2cc(O)cc(O)c12 [APIGENIN]
- IC50 [6]: 20 µM
- IC50 [7]: 15 µM

SMILES: OC[C@@]1(O)CO[C@@H](OC[C@H]2O[C@@H](O[C@@H]3CCCCc4ccc(O)c(c4)Oc4ccc(cc4)CC3)[C@H](O)[C@@H](O)[C@@H]2O)[C@@H]1O
- ID50 (Mus musculus [2]): 0.81 mg

SMILES: COc1cc(O)c([C@H](/C=C/C[C@@H](O)CCc2ccc(O)cc2)c2ccc(O)cc2)c2oc(-c3ccc(O)cc3)cc(=O)c12 (stereo in doubt; 111)
- IC50 (J774.1; j774.1): 95 µM

SMILES: CO[C@@H](CCc1ccc(O)cc1)CC(=O)CCc1ccc(O)cc1
- IC50 (RAW264.7 [12]): 15.2 µM

SMILES: Oc1ccc(CCCC[C@H](O)CCc2ccc(O)cc2)cc1
- IC50 (RAW264.7 [13]): > 25 µM

SMILES: COc1cc(/C=C/C(=O)CC(=O)CCc2ccc(O)c(OC)c2)ccc1O
- IC50 (J774.1; Mus musculus, J774.1, 48 h): 181 µM

SMILES: Oc1ccc(CCCC[C@H](CCc2ccc(O)cc2)O[C@@H]2OC[C@@H](O)[C@H](O)[C@H]2O)cc1
- IC50 (RAW264.7 [12]): 63 µM

SMILES: COc1cc2cc(c1O)-c1cc(ccc1O)CCC(=O)CCCC2 [MYRICANANIN C]
- IC50 (RAW264.7 [8]): 13 µM
- IC50 [9]: 12 µM

SMILES: O=C(CCc1ccc(O)c(O)c1)C[C@H](CCc1ccc(O)c(O)c1)O[C@H]1OC[C@H](O)[C@@H](O)[C@@H]1OC(=O)c1ccccc1
- IC50 (RAW264.7 [12]): 15.4 µM

SMILES: O=C(CCc1ccc(O)c(O)c1)C[C@H](CCc1ccc(O)cc1)O[C@@H]1OC[C@@H](O)[C@H](O)[C@H]1O
- IC50 (RAW264.7 [12]): 8.1 µM

SMILES: Oc1ccc(CC[C@H](O)CCCCc2ccc(O)c(O)c2)cc1
- IC50 (RAW264.7 [12]): 22.1 µM

SMILES: CC(C)C[C@@H](C=O)NC(=O)[C@H](CC(C)C)NC(=O)[C@H](CC(C)C)NC(=O)OCc1ccccc1 [MG-132] (Cbz-Leu-Leu-Leu-aldehyde)
- IC50 (RAW264.7 [13]): 0.1 µM

SMILES: COc1cc(CCC(=O)CC(=O)CCc2ccccc2)ccc1O
- IC50 (Zingiber officinale): 4.4 µM

SMILES: COc1c2cc(c(O[C@@H]3O[C@H](CO)[C@@H](O)[C@H](O)[C@H]3O)c1OC)CCCC[C@H](O)CCc1ccc(O)c-2c1
- Activity (Rattus norvegicus): 47.1%
- Activity [1]: 41%

SMILES: Oc1ccc2cc1Oc1ccc(cc1)CCCC[C@@H](O)CC2
- ID50 (Mus musculus [2]): 0.26 mg

SMILES: O=C(CCCCc1ccc(O)cc1)CCc1ccc(O)c(O)c1
- IC50 (RAW264.7 [13]): 13.2 µM

SMILES: CCC(C)C(=O)O[C@@H]1[C@@H](O[C@@H](CCc2ccc(O)c(O)c2)CC(=O)CCc2ccc(O)c(O)c2)OC[C@H](O)[C@H]1O (stereo partly drawn)
- IC50 (RAW264.7 [12]): 30 µM

SMILES: COc1cc(O)c([C@H](/C=C/C[C@H](CCc2ccc(O)cc2)OO)c2ccc(O)cc2)c(O)c1C(=O)/C=C/c1ccc(O)cc1
- IC50 (J774.1; Mus musculus, J774.1, 48 h): 49 µM

SMILES: COc1c2cc(c(OC)c1OC)-c1cc(ccc1O)CC(O)C(=O)CCCC2 (stereo not drawn)
- IC50 (RAW264.7 [8]): 46.9 µM
- IC50 [9]: 73.7 µM
- IC50 [15]: > 250 µM

SMILES: COc1ccc(C/C=C/CCCCc2ccc(O)c(O)c2)cc1
- IC50 (RAW264.7 [4]): 15.9 µM
- IC50 (RAW264.7 [5]): 25.1 µM
- IC50 [6]: 23.3 µM
- IC50 [7]: 41.3 µM

SMILES: O=C(CCc1ccc(O)c(O)c1)C[C@H](CCc1ccc(O)c(O)c1)O[C@H]1OC[C@H](O)[C@@H](O)[C@@H]1OC(=O)/C=C/c1ccccc1
- IC50 (RAW264.7 [12]): 10.5 µM

SMILES: COc1ccc(C/C=C/CCCCc2ccc(OC)c(OC)c2)cc1
- IC50 (RAW264.7 [4]): 5.3 µM
- IC50 (RAW264.7 [5]): 28.3 µM
- IC50 [6]: 4.3 µM
- IC50 [7]: 12.7 µM

SMILES: COc1cc(O)c([C@H](/C=C/C[C@@H](O)CCc2ccc(O)cc2)c2ccc(O)cc2)c(O)c1C(=O)[C@@H]1[C@H](/C=C/c2ccc(O)cc2)C[C@H](CCc2ccc(O)cc2)O[C@H]1c1ccc(O)cc1
- IC50 (J774.1; Mus musculus, J774.1, 48 h): 36 µM

— ChEMBL document CHEMBL5233262, “Anti-inflammatory activity of naturally occuring diarylheptanoids - A review” (Bioorg Med Chem, 2021)
